Data set [1] concerns Leishmania mexicana. The data set is described as follows: Antileishmanial activity against Leishmania mexicana intracellular amastigotes. The class given is functional, organism-based.
The nature of data set [2]: Selectivity index, ratio of EC50 for mouse J774.A1 cells to EC50 for Leishmania mexicana intracellular amastigotes. In kind it is toxicity, cell-based. The note with it: read-out: Ratio EC50.
The nature of data set [3]: Cytotoxicity against mouse J774.A1 cells assessed as reduction in cell viability. The class given is toxicity, cell-based.

In general, EC50 refers to the midpoint of the concentration-response curve. In data set [1], `Cc1ccc(-c2cc3c(c(OCC4CCCN(C)C4)c2)OCCN(C(=O)C2CC2)C3)s1` (configuration not stated) displayed a 50% effective concentration (EC50) of 10.2 µM.

In data set [1], `Cc1ccc(-c2cc(O)c3c(c2)CN(C(=O)Cc2c(C)noc2C)CCO3)s1` yielded an EC50 of 22.8 µM.

In data set [1], `Cc1ccc(-c2cc3c(c(OCC4CCCN(C)C4)c2)OCCNC3)s1` (configuration not stated) had an EC50 of 3.6 µM.

`Cc1ccc(-c2cc3c(c(OCC4CCCN(C)C4)c2)OCCN(C(=O)C2CCC2)C3)s1` (configuration not stated) registered a concentration for a half-maximal effect (EC50) in data set [1] of 4.8 µM.

As to `Cc1noc(C)c1CC(=O)N1CCOc2c(cc(-c3cccc(Cl)c3)cc2OCC2CCCN(C)C2)C1` (configuration not stated), the selectivity ratio in data set [2] amounted to 3.6. The EC50 in data set [3] is 3.2 µM; in data set [1], 0.9 µM.

As for `Cc1noc(C)c1CC(=O)N1CCOc2c(cc(-c3cccc(F)c3)cc2OCC2CCCN(C)C2)C1` (configuration not stated), the selectivity ratio in data set [2] stood at 4.4. For the same compound, the half-maximal effective concentration (EC50) in data set [3] came to 11.5 µM; in data set [1], 2.6 µM.

On to `Cc1noc(C)c1CC(=O)N1CCOc2c(cc(-c3ccc(Cl)cc3)cc2OCC2CCCN(C)C2)C1` (configuration not stated), for which the selectivity ratio in data set [2] was determined as 3.4. For the same compound, the figures for the EC50 in data set [3] and in data set [1] were 5.5 µM and 1.6 µM, respectively.

`Cc1noc(C)c1CC(=O)N1CCOc2c(O)cc(-c3cccc(F)c3)cc2C1` displayed a 50% effective concentration (EC50) in data set [1] of 29.5 µM.

In the case of `Cc1ccc(-c2cc3c(c(OCC4CCCN(C)C4)c2)OCCN(C(=O)Cc2ccc(F)cc2)C3)s1` (configuration not stated), the EC50 in data set [1] is 4.9 µM.

In the case of `Cc1ccc(-c2cc3c(c(OCC4CCCN(C)C4)c2)OCCN(C(=O)Cc2c(C)noc2C)C3)s1` (configuration not stated), the selectivity ratio in data set [2] was found to be 2. The EC50 came out at 4.7 µM in data set [3] and 2.3 µM in data set [1].

Take `Cc1noc(C)c1CC(=O)N1CCOc2c(cc(-c3cccnc3)cc2OCC2CCCN(C)C2)C1` (configuration not stated): the EC50 in data set [3] was above 50 µM; in data set [1], 29 µM.

Consider `Cc1noc(C)c1CC(=O)N1CCOc2c(cc(-c3ccn(C)n3)cc2OCC2CCCN(C)C2)C1` (configuration not stated), for which the values for the 50% effective concentration (EC50) in data set [3] and in data set [1] were above 50 µM and 16.5 µM, respectively.

For `Cc1noc(C)c1CC(=O)N1CCOc2c(O)cc(-c3cccc(Cl)c3)cc2C1`, in data set [1], the half-maximal effective concentration (EC50) amounted to 15.5 µM.

Take `Cc1cccc(CN2CCOc3c(cc(-c4ccc(C)s4)cc3OCC3CCCN(C)C3)C2)n1` (configuration not stated): the EC50 in data set [1] was determined as 5.3 µM.

For the compound `CN1CCCC(COc2cc(-c3cccc(Cl)c3)cc3c2OCCNC3)C1` (configuration not stated), in data set [1], the EC50 turned out to be 2.2 µM.

Compound `COc1ccc(C(=O)N2CCOc3c(cc(-c4ccc(C)s4)cc3OCC3CCCN(C)C3)C2)c(OC)c1` (configuration not stated) showed an EC50 in data set [1] of 3.9 µM.

For the compound `Cc1noc(C)c1CC(=O)N1CCOc2c(cc(CC3CC3)cc2OCC2CCCN(C)C2)C1` (configuration not stated), in data set [3], the EC50 is above 50 µM.

On to `Cc1noc(C)c1CC(=O)N1CCOc2c(cc(Br)cc2OCC2CCCN(C)C2)C1` (configuration not stated), for which the EC50 in data set [3] is above 50 µM.

Compound `COc1cccc(C(=O)N2CCOc3c(cc(-c4ccc(C)s4)cc3OCC3CCCN(C)C3)C2)c1` (configuration not stated) had a 50% effective concentration (EC50) in data set [1] of 4.4 µM.

Regarding `CC1=NN(C)CC1c1cc2c(c(OCC3CCCN(C)C3)c1)OCCN(C(=O)Cc1c(C)noc1C)C2` (configuration not stated), the values for the EC50 in data set [3] and in data set [1] were above 50 µM and 37.5 µM, respectively.

Compound `CN1CCCC(COc2cc(-c3cccc(Cl)c3)cc3c2OCCN(C(=O)Cc2ccsc2)C3)C1` (configuration not stated) gave an EC50 in data set [1] of 11.3 µM.

Take `Cc1noc(C)c1CC(=O)N1CCOc2c(cc(-c3ccccc3Cl)cc2OCC2CCCN(C)C2)C1` (configuration not stated): the selectivity ratio in data set [2] turned out to be 5.1. Further, the EC50 in data set [3] is 14.7 µM; in data set [1], 2.9 µM.

On to `COc1ccccc1C(=O)N1CCOc2c(cc(-c3ccc(C)s3)cc2OCC2CCCN(C)C2)C1` (configuration not stated), for which, in data set [1], the EC50 worked out at 6.1 µM.

`Cc1ccc(-c2cc3c(c(OCC4CCCN(C)C4)c2)OCCN(C(=O)c2cccc(Cn4cccn4)c2)C3)s1` (configuration not stated): the EC50 in data set [1] was determined as 4.6 µM.

For `CN1CCCC(COc2cc(-c3cccc(Cl)c3)cc3c2OCCN(C(=O)c2cccs2)C3)C1` (configuration not stated), the EC50 in data set [1] stood at 4.6 µM.

For `Cc1ccc(-c2cc3c(c(OCC4CCCN(C)C4)c2)OCCN(Cc2cn(C)nc2C)C3)s1` (configuration not stated), a half-maximal effect in data set [1] (EC50) was put at 5.8 µM.

In the case of `Cc1noc(C)c1CC(=O)N1CCOc2c(cc(-c3ccnn3C)cc2OCC2CCCN(C)C2)C1` (configuration not stated), the 50% effective concentration (EC50) in data set [3] was above 50 µM; in data set [1] it was 25 µM.

For the compound `CCCCCCCCCCCCCCCCOP(=O)([O-])OCC[N+](C)(C)C` [MILTEFOSINE], the EC50 in data set [1] stood at 3.2 µM.
